≈ marks a conversion by molar mass, not a printed value. Counter-ions that a name gives are not always drawn.
What was measured:
[1] = test system: IL-1β release upon NLRP3 activation in peripheral blood mononuclear cells (PBMC); assay: PBMC IC50 Determination Assay; format: cell-based; conditions: Homo sapiens; LPS-primed PBMC stimulated with ATP (5 mM) or nigericin (10 μM); IL-1β by ELISA (Protocol A) or HTRF (Protocol B); salts tested
Procedure: PBMC IC50 Determination Assay. The compounds of the present disclosure were tested for their inhibitory activity against IL-1β release upon NLRP3 activation in peripheral blood mononuclear cells (PBMC).
Protocol A. PBMC were isolated from buffy coats by density gradient centrifugation on Histopaque-1077 (Sigma, cat no. 10771). Isolated cells were seeded into the wells of a 96-well plate and incubated for 3 h with lipopolysaccharide (LPS). Following medium exchange, the compounds of the present disclosure were added (a single compound per well) and the cells were incubated for 30 min. Next, the cells were stimulated either with ATP (5 mM) or nigericin (10 μM) for 1 h and the cell culture media from the wells were collected for further analysis. The release of IL1-β into the media was determined by a quantitative detection of IL-1β in the media using an IL-1β enzyme-linked immunosorbent assay (ELISA) Ready-SET-Go!, eBioscience cat. No. 88-7261-88. Briefly, in a first step, high affinity binding plates (Corning, Costar 9018 or NUNC Maxisorp Cat No. 44-2404) were coated overnight at 4° C. with specific capture antibody included in the kit (anti-human IL-1β ref. 14-7018-68). Subsequently, plates were blocked with blocking buffer for 1 h at room temperature (rt) and after washing with a buffer (PBS with 0.05% Tween-20) incubated with protein standard and culture media. After 2 h of incubation at rt, plates were washed and incubated with biotinylated detection antibody included in the kit (anti-human IL-1β Biotin ref. 33-7110-68) for 1 h at rt. Plates were washed and incubated with HRP-streptavidin for 30 min at rt and washed again. The signal was developed after addition of 3,3′,5,5′-tetramethylbenzidine-peroxidase (TMB) until colour appeared and the reaction was stopped by 2 M H2SO4. A microplate spectrophotometer (BioTek) was used to detect signals with 450 nm. The detection range of IL-1β 3 ELISA was 2-150 ng/mL.
Protocol B. PBMC were isolated from buffy coats by density gradient centrifugation on Histopaque-1077 (Sigma, cat no. 10771). Isolated cells were seeded into the wells (280,000 cells/well) of a 96-well plate and incubated for 3 h with lipopolysaccharide (LPS, 1 μg/mL diluted 1000× from a 1 mg/mL stock solution). The compounds of the present disclosure were added (a single compound per well) and the cells were incubated for 30 min. Next, the cells were stimulated with ATP (5 mM final concentration diluted 20× from a 100 mM stock solution) for 1 h and the cell culture media from the wells were collected for further analysis. The release of IL-1β into the media was determined by quantitative detection of IL-1 in the media using HTRF®, CisBio cat. No. 62HIL1BPEH. Briefly, cell culture supernatant were dispensed directly into the assay plate containing antibodies labelled with the HTRF® donor and acceptor. A microplate spectrophotometer (BMG) was used to detect signals at 655 nm and 620 nm. The detection range of IL-1β HTRF® was […].

PAMPA permeability assay = format: in vitro ADME; conditions: 10 μM donor, PBS, 4 hours at room temperature, lecithin/dodecane membrane
Procedure: PAMPA Studies. The compounds of the present disclosure were tested in a PAMPA permeability assay to assess passive transcellular permeation.
Protocol. 0.2 mM working solution was prepared by diluting 10 mM stock solution with DMSO. 10 μM donor solution (5% DMSO) was prepared by diluting 20 μL of working solution with 380 μL PBS. 150 μL of 10 μM donor solutions to each well of the donor plate, whose PVDF membrane was precoated with 5 μL of 1% lecithin/dodecane mixture. Duplicates were prepared. 300 μL of PBS was added to each well of the PTFE acceptor plate. The donor plate and acceptor plate were combined and incubated for 4 hours at room temperature with shaking at 300 rpm. Preparation of TO sample: 20 μL donor solution was transferred to new well followed by the addition of 250 μL PBS (DF: 13.5), 130 μL ACN (containing internal standard) as TO sample. Preparation of acceptor sample: The plate was removed from incubator. 270 μL solution was transferred from each acceptor well and mixed with 130 μL ACN (containing internal standard) as acceptor sample. Preparation of donor sample: 20 μL solution was transferred from each donor well and mixed with 250 μL PBS (DF: 13.5), 130 μL ACN (containing internal standard) as donor sample. Acceptor samples and donor samples were all analysed by LC-MS/MS.
The measured PAMPA permeability values of compounds of the present disclosure are shown in Table B below (“$$$$” means >10 nm/“$$$” means ≥3 and <10 nm/s; “$$” means ≥1 and <3 nm/s; “$” means <1 nm/s).

[2] = test system: P-glycoprotein (P-gp) or breast cancer resistance protein (BCRP); assay: BCRP and P-gp Caco-2 permeability assay; format: in vitro ADME; conditions: efflux ratio, Caco-2 cells
Procedure: BCRP and P-gp Caco-2 Studies. The compounds of the present disclosure were tested in a Caco-2 permeability assay to assess whether they are actively transported out of cells by the efflux proteins, P-glycoprotein (P-gp) or breast cancer resistance protein (BCRP).
Caco-2 cells were used between passage numbers 40-60. Cells were seeded onto Millipore Multiscreen Transwell plates at […]. The cells were cultured in DMEM and media was changed every two or three days. On Day 18-22 the BCRP inhibition study was performed. Cell culture and assay incubations were carried out at 37° C. in an atmosphere of 5% CO2 with a relative humidity of 95%. On the day of the assay, the monolayers were prepared by rinsing both apical and basolateral surfaces twice with warmed (37° C.) transport buffer (Hanks Balanced Salt Solution [HBSS] containing 25 mM HEPES and 4.45 mM glucose, pH 7.4). Cells were then incubated with transport buffer containing test compound or positive control inhibitor (novobiocin) in both apical and basolateral compartments for 30 minutes at 37° C. For the inhibition studies a P-gp inhibitor or BCRP inhibitor was included on both sides of the monolayer for the equilibration period. The dosing solutions were prepared by diluting estrone 3-sulfate and test compound where applicable to give a final estrone 3-sulfate concentration of 1 μM (final DMSO concentration of 1% v/v). The fluorescent integrity marker lucifer yellow was prepared in receiver solutions in vehicle or test compound-containing transport buffer. After pre-incubation, the transport buffer was removed from both apical and basolateral compartments and replaced with the appropriate dosing or receiver solution. For assessment of B-A permeability, transport buffer was removed from the basolateral companion plate and replaced with dosing solution. Fresh transport buffer containing lucifer yellow and test compound where applicable (final DMSO concentration 1% v/v) was added to the apical compartment insert, which was then placed into the companion plate. After a 90-minute incubation the apical compartment inserts and the companion plates were separated and compartments sampled for analysis. Seven concentrations of compound (up to 100 μM) were assessed in addition to a vehicle control (0 μM). A triplicate determination of each concentration was performed. The positive control inhibitor was evaluated in parallel. [^3H]-estrone 3-sulfate was quantified by liquid scintillation counting to give disintegrations per minute (dpm). The integrity of the monolayer throughout the experiment was checked by monitoring lucifer yellow permeation using fluorimetric analysis. Corrected B-A apparent permeability (Papp) of probe substrate was calculated by subtracting its mean passive Papp determined in the presence of the highest concentration of positive control inhibitor (giving 100% transporter inhibition). The mean corrected B-A Papp from vehicle wells (0 μM test compound) was defined as 100% transport activity and this value was then used to calculate the percentage control transport activity for all other test compound concentrations. Percentage control transport activity was plotted against test compound concentration and fitted to calculate an IC50 value.
The efflux ratio (ER) values of compounds of the present disclosure are shown in Table B below (“****” means <3; “***” 3≥ and <10; “**” means ≥10 and <30; “*” means ≥30).

[3] = Thermodynamic (equilibrium) solubility assay; format: physicochemical; conditions: aqueous buffer, thermodynamic from solid; 50 mM pH 7.4 phosphate buffer, 24 hours at room temperature
Procedure: Thermodynamic Solubility Studies. The compounds of the present disclosure were tested in an equilibrium solubility assay.
An appropriate amount of test and control compounds were weighed into lower chambers of Whatman Mini-UniPrep vials. To these were added 50 mM pH 7.4 phosphate buffer (450 μL) to get a super-saturated suspension. The samples were vortexed for at least 2 minutes. The Whatman Mini-UniPrep vials were shaken on a shaker for 24 hours at room temperature at 800 rpm. The vials were centrifuged for 20 minutes (eg. 4000 rpm). Samples were compressed to prepare filtrates for injection into HPLC system and the concentration calculated with a standard curve. […] As shown in the table, compounds of the present disclosure may display improved properties (e.g., over the compounds in the prior art), such as enhanced potency, solubility, membrane permeability and transporter efflux.

SMILES | PAMPA Pe (PAMPA permeability assay) | Caco-2 ER [2] | solubility thermodynamic at 24 h [3] [µg/mL] | IC50 [1] [nM]
Cn1cc(N(C[C@@H]2C[C@H](O)CO2)S(=O)(=O)NC(=O)Nc2c3c(cc4c2CCC4)CCC3)cn1 (relative stereo) [Compound 2A, Sodium ((1,2,3,5,6,7-hexahydro-s-indacen-4-yl)carbamoyl)(N-((cis-4-hydroxy-tetrahydrofuran-2-yl)methyl)-N-(1-methyl-1H-pyrazol-4-yl)sulfamoyl)amide] |  |  |  | < 100
Cn1cc(N(CC2CCCO2)S(=O)(=O)NC(=O)Nc2c3c(cc4c2CCC4)CCC3)cn1 (stereo not drawn) [Compound 1] |  |  |  | < 100
Cn1cc(N(C[C@H]2C[C@H](O)CO2)S(=O)(=O)NC(=O)Nc2c3c(cc4c2CCC4)CCC3)cn1 [Compound 2B, 1-(1,2,3,5,6,7-Hexahydro-s-indacen-4-yl)-3-[[(2R,4S)-4-hydroxytetrahydro-furan-2-yl]methyl-(1-methylpyrazol-4-yl)sulfamoyl]urea, sodium salt] |  |  |  | 100 to 1000
Cn1cc(N(CC2CCCCO2)S(=O)(=O)NC(=O)Nc2c3c(cc4c2CCC4)CCC3)cn1 (stereo not drawn) [Compound 6, Sodium [(1,2,3,5,6,7-hexahydro-s-indacen-4-yl)carbamoyl][(1-methyl-1H-pyrazol-4-yl)[(oxan-2-yl)methyl]sulfamoyl]azanide] | $$$$ (“$$$$” means >10 nm/) | **** (“****” means <3) | 3000 to 10000 | < 100
O=C(Nc1c2c(cc3c1CCC3)CCC2)NS(=O)(=O)N(C[C@@H]1CCCO1)c1cn[nH]c1 [Compound 8A, 1-(1,2,3,5,6,7-hexahydro-s-indacen-4-yl)-3-[1H-pyrazol-4-yl-[[(2S)-tetrahydrofuran-2-yl]methyl]sulfamoyl]urea] |  |  |  | < 100

Now from value to compound, other results behind:

PAMPA Pe (PAMPA permeability assay) | Caco-2 ER [2] | solubility thermodynamic at 24 h [3] [µg/mL] | SMILES | IC50 [1] [nM]
$$ (“$$” means ≥1 and <3 nm/s) | **** (“****” means <3) | 3000 to 10000 | Cn1cc(N(C[C@@H]2CCCO2)S(=O)(=O)NC(=O)Nc2c3c(cc4c2CCC4)CCC3)cn1 [Compound 1A, Sodium [(1,2,3,5,6,7-hexahydro-s-indacen-4-yl)carbamoyl][(1-methyl-1H-pyrazol-4-yl)({[(2S)-oxolan-2-yl]methyl})sulfamoyl]azanide] | < 100
$$ (“$$” means ≥1 and <3 nm/s) | **** (“****” means <3) | 1000 to 3000 | Cn1cc(N(C[C@H]2CCCO2)S(=O)(=O)NC(=O)Nc2c3c(cc4c2CCC4)CCC3)cn1 [Compound 1B, Sodium [(1,2,3,5,6,7-hexahydro-s-indacen-4-yl)carbamoyl][(1-methyl-1H-pyrazol-4-yl)({[(2R)-oxolan-2-yl]methyl})sulfamoyl]azanide] | < 100
$ (“$” means <1 nm/s) | ** (“**” means ≥10 and <30) | 1000 to 3000 (≈ 2.18 to 6.53 mM) | Cn1cc(N(CC2CCOC2)S(=O)(=O)NC(=O)Nc2c3c(cc4c2CCC4)CCC3)cn1 (stereo not drawn) [Compound 4] | 100 to 1000
$$ (“$$” means ≥1 and <3 nm/s) | *** (“***” 3≥ and <10) | 3000 to 10000 | Cn1cc(N(CCC2CCCO2)S(=O)(=O)NC(=O)Nc2c3c(cc4c2CCC4)CCC3)cn1 (stereo not drawn) [Compound 5, Sodium [(1,2,3,5,6,7-hexahydro-s-indacen-4-yl)carbamoyl][(1-methyl-1H-pyrazol-4-yl)[2-(oxolan-2-yl)ethyl]sulfamoyl]azanide] | 100 to 1000

— patent US20240043410A1, “SULPHAMOYL UREA DERIVATIVES CONTAINING ALKYL-OXACYCLOALKYL MOIETY AND USES THEREOF” (NodThera Limited, priority 2020, published 2024)
